Source: patent publication US20220133714A1, “EXTRACELLULAR MATRIX MODULATING AGENT” (KOWA COMPANY, LTD., priority 2019, published 2022)

Assays:
human fibroblasts = conditions: cited from earlier work
[1] = tested on: corneal endothelial cells; conditions: cited from earlier work; for apoptosis and endothelial-mesenchymal transition (EMT) of corneal endothelial cells / cell adhesion, migration, proliferation and wound healing: in vitro and in vivo animal models
[2] = tested on: corneal endothelial cells of normal donors; experiment: Real-time PCR expression of FECD-associated matrix genes in normal donor endothelial-Descemet membrane specimens; format: cell-based, human; conditions: normal EDM specimens, 24 h
Experimental: FIG. 3 illustrates Relative expression of FECD-associated matrix genes in corneal endothelial cells of normal donors (n=6) without and with incubation in 10-100 μM K-115 for 24 h. Gene expression was analyzed by quantitative real-time PCR and normalized to GAPDH (*p<0.01).
(§1) Endothelial-Descemet membrane (EDM)-complexes from normal donor corneas and from FECD patients during DMEK surgery were prepared. EDM scrolls were dissected into two halves and incubated for 24-72 hours in CorneaMax storage medium (Eurobio) with or without K-115 (Selleck Chemicals). Gene expression analysis was performed using specific real-time PCR arrays for FECD-associated candidate genes as well as RT2 Profiler PCR Arrays (Quiagen). Array results were again validated using gene-specific real-time PCR assays. Protein expression analysis was performed by Western blotting.

[3] = tested on: corneal endothelial cells of FECD patients; experiment: Western blot protein expression in FECD specimens; format: cell-based, human; conditions: 30 μM, 72 hours of incubation
Experimental: FIG. 5 illustrates Western Blot analysis of fibronectin in corneal endothelial cells of FECD patients (n=4); equal loading of samples was verified by β-actin.
as §1
Then, gene expression levels in FECD specimens were analyzed, which were incubated in 30 μM K-115 for 24 hours. […] In order to identify additional matrix genes that may be transcriptionally regulated by K-115, gene expression profiling using a Human Extracellular Matrix and Adhesion Molecule PCR array were performed. With this approach, downregulation of fibronectin and collagen types I and III and detected additional downregulation of vitronectin and collagen types V and XIV in corneal endothelial cells from FECD patients (data not shown) were confirmed.

[4] = tested on: corneal endothelial cells of FECD patients; experiment: Real-time PCR expression of FECD-associated matrix genes in FECD patient endothelial-Descemet membrane specimens; format: cell-based, human; conditions: 30 μM, 24 hours, vs untreated controls
Experimental: (§2) FIG. 4 illustrates Relative expression of FECD-associated matrix genes in corneal endothelial cells of FECD patients (n=20) without and with incubation in 30 μM K-115 for 24 h. Gene expression was analyzed by quantitative real-time PCR and normalized to GAPDH (*p<0.01, **p<0.001). Endothelial-Descemet membrane (EDM)-complexes from normal donor corneas and from FECD patients during DMEK surgery were prepared. EDM scrolls were dissected into two halves and incubated for 24-72 hours in CorneaMax storage medium (Eurobio) with or without K-115 (Selleck Chemicals). Gene expression analysis was performed using specific real-time PCR arrays for FECD-associated candidate genes as well as RT2 Profiler PCR Arrays (Quiagen). Array results were again validated using gene-specific real-time PCR assays. Protein expression analysis was performed by Western blotting. Then, gene expression levels in FECD specimens were analyzed, which were incubated in 30 μM K-115 for 24 hours. […] In order to identify additional matrix genes that may be transcriptionally regulated by K-115, gene expression profiling using a Human Extracellular Matrix and Adhesion Molecule PCR array were performed. With this approach, downregulation of fibronectin and collagen types I and III and detected additional downregulation of vitronectin and collagen types V and XIV in corneal endothelial cells from FECD patients (data not shown) were confirmed.

[5] = tested on: corneal endothelial cells from FECD patients; experiment: Human Extracellular Matrix and Adhesion Molecule PCR array gene expression profiling; format: cell-based; conditions: data not shown
Experimental: as §2, with “Endothelial-Descemet” for “FIG. 4 illustrates Relative expression of FECD-associated matrix genes in corneal endothelial cells of FECD patients (n=20) without and with incubation in 30 μM K-115 for 24 h. Gene expression was analyzed by quantitative real-time PCR and normalized to GAPDH (*p<0.01, **p<0.001). Endothelial-Descemet”

## O=S(=O)(c1cccc2cnccc12)N1CCCNCC1 [Fasudil]
Human fibroblasts
  expression of α-SMA, MLCP, LIMK1, p-cofilin, collagen I, and collagen III protein: attenuated

## Cc1cncc2cccc(S(=O)(=O)N3CCCNC[C@@H]3C)c12 [H-1152]
[1]
  apoptosis and endothelial-mesenchymal transition (EMT) of corneal endothelial cells: suppressed
  cell adhesion, migration, proliferation and wound healing: stimulated

## C[C@H]1CNCCCN1S(=O)(=O)c1cccc2cncc(F)c12 [K-115, (S)-(−)-1-(4-fluoro-5-isoquinolinesulfonyl)-2-methyl-1,4-homopiperazine]
[1]
  EMT markers: downregulation
  endothelial cell proliferation and wound healing: stimulating
  functional endothelial markers: upregulation
[2]; 10-100 μM, normalized to GAPDH
  agrin gene expression: significantly downregulated
  collagen type I gene expression: significantly downregulated
  collagen type III gene expression: significantly downregulated
  fibronectin gene expression: significantly downregulated
  α-smooth muscle actin (α-SMA) gene expression: significantly downregulated
  β-actin gene expression: significantly downregulated
[2]; tested 10-100 μM
  most effective concentration for downregulation of matrix genes: 30 µM
[3]
  collagen type III protein level: significantly downregulated
[3]; Western blot
  fibronectin protein level: significantly downregulated
[4]
  TGFBI gene expression: upregulated
  agrin gene expression: significant reduction
  collagen type I gene expression: significant reduction
  collagen type III gene expression: significant reduction
  collagen type XVI gene expression: upregulated
  fibronectin gene expression: significant reduction
  integrin a4 (ITGA4) gene expression: upregulated
  α-SMA gene expression: significant reduction
[5]
  collagen type I gene expression (PCR array): downregulation
  collagen type III gene expression (PCR array): downregulation
  collagen type V gene expression (PCR array): downregulation
  collagen type XIV gene expression (PCR array): downregulation
  fibronectin gene expression (PCR array): downregulation
  vitronectin gene expression (PCR array): downregulation

## O=C(NCc1ccccc1)c1csc(Nc2ccncn2)n1 [Thiazovivin]
[1]
  apoptosis and endothelial-mesenchymal transition (EMT) of corneal endothelial cells: suppressed
  cell adhesion, migration, proliferation and wound healing: stimulated

## C[C@@H](N)[C@H]1CC[C@H](C(=O)Nc2ccncc2)CC1 [Y-27632]
[1]
  apoptosis and endothelial-mesenchymal transition (EMT) of corneal endothelial cells: suppressed
  cell adhesion, migration, proliferation and wound healing: stimulated
